Reference: paper PMC3591448, “Profile of the GSK Published Protein Kinase Inhibitor Set Across ATP-Dependent and-Independent Luciferases: Implications for Reporter-Gene Assays” (PLoS ONE, 2013)
Like-named read-outs stand apart in the source and are kept apart here.

Tests used:
[1] = molecular target: T1, Renilla luciferase (RLuc) (Renilla reniformis, UniProt P27652); assay: RLuc enzymatic assay (purified enzyme, qHTS, 1536-well); type: biochemical; details: 1 nM RLuc, 5 µM coelenterazine-H
T1 sequence (P27652 1-311): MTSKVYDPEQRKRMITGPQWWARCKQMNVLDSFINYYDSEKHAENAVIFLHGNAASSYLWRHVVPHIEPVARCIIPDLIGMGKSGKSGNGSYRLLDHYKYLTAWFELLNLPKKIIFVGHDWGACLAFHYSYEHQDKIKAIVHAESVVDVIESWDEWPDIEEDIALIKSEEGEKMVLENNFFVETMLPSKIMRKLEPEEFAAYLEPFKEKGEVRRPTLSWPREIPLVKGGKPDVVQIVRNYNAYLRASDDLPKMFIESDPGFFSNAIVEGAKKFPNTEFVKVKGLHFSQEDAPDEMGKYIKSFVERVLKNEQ
Description: (§1) 1 µL of purified luciferase was then dispensed into each well for final concentrations 10 nM FLuc or 1 nM RLuc. The bioluminescence outputs were measured by an EnVision reader (PerkinElmer, Wellesley, MA). Due to the relatively short luminescence duration of the RLuc assay, dispense time constants were set to match closely to the read time of the plate reader. As a result, each individual well was read with approximately the same time delay from reagent dispense to signal acquisition. See Table 1 for the 1536-well assay protocols.
(§2) Data from each assay was normalized plate-wise to corresponding intraplate controls as described previously, [17]. The same control data sets were also used for the calculation of Z′ factors from each assay. In all assays, wells containing DMSO were used as no-response controls. For the FLuc enzymatic assay, each compound-treated well on the plate was normalized to the average readings of n = 24 PTC124 treated wells and n = 48 DMSO wells from the same plate. Wells were scaled to a full range of DMSO and zero, and then normalized using the maximum response observed in the screen as 100% activity. For the RLuc enzymatic assay, n = 24 BTS treated wells for the positive control, n = 48 DMSO. MSR values were calculated using the cumulative potency differences of the de-interleaved duplicate control titrations from each plate as previously described. The normalized data from each assay plate set was corrected using DMSO-only treated assay plates read at the start and end of each assay run, and the resulting inter-plate titration data fit, using in-house software, to the standard Hill equation and dose-response curves automatically classified as described previously.
(§3) The curve classification scheme for assignment of resulting curve-fit data into CRC classes was according to Inglese et al. as follows: class 1 curves (far left) display two asymptotes, an inflection point, and r^2≥0.9; subclasses 1a vs. 1b are differentiated by full (>80%) vs. partial (≤80%) response. Class 2 curves (second from left) display a single left-hand asymptote and inflection point; subclasses 2a (or 2.1) and 2b (2.2) are differentiated by a max response and r^2, >80% and >0.9 or <80% and <0.9, respectively. Class 3 curves (second from right) have a single left-hand asymptote, no inflection point, and a response >3SD from the mean activity of the sample field.

VEGFR2 = details: ref Harris, P.A., et al. 2005; read-out: PKI IC50 (µM), VEGFR2; cited from earlier work
[2] = molecular target: firefly luciferase, Photinus pyralis (FLuc) (Photinus pyralis, UniProt P08659); assay: biochemical; type: biochemical; details: for FLuc Parameters Hill Coef: Hill equation fit of CRC; for Emax: response relative to PTC124 control inhibitor, negative = inhibition, read-out: FLuc Parameters Efficacy
Chain of firefly luciferase, Photinus pyralis (FLuc) (P08659 whole entry): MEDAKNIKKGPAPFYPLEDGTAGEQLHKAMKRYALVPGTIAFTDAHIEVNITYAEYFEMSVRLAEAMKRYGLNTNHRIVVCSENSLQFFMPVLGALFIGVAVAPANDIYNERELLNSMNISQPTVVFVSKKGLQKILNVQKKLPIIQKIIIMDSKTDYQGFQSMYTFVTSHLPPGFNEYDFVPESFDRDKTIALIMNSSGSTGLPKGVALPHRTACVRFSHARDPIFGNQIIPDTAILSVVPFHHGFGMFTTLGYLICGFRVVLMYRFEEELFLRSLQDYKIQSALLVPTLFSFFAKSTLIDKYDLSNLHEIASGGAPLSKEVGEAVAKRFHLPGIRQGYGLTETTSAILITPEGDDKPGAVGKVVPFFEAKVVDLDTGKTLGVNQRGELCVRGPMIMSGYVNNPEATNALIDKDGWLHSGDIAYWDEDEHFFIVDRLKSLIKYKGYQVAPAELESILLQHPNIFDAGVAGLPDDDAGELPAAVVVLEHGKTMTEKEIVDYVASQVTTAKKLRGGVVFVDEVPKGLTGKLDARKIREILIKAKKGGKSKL
Description: as §1, with “The” for “1 µL of purified luciferase was then dispensed into each well for final concentrations 10 nM FLuc or 1 nM RLuc. The”
as §2, §3

CDK = tested on: CDK; design: method as in Stevens, K. L., et al. 2008; details: ref Stevens, K. L., et al. 2008; read-out: PKI IC50 (µM), CDK; cited from earlier work
[3] = 10 nM FLuc, 10 µM D-luciferin, 10 µM ATP, read-out: FLuc Parameters IC50

SMILES | RLuc Curve Class [1] | IC50 (VEGFR2) [µM] | IC50 [2, 3] [nM] | FLuc Parameters Hill Coef [2] | IC50 ([2]; Table 3, read-out: FLuc IC50) [nM] | Emax [2] [%] | IC50 (CDK) [µM] | IC50 ([2]; Figure 2b, representative structures of clusters, read-out: FLuc IC50) [nM]
COc1ccccc1Nc1ncc(-c2ccccc2)o1 [GW577921A] | 4 | 0.38 | 1030 | 1 | 1030 | 102 | – | –
c1cc(-c2cnn3nc(N4CCOCC4)ccc23)nc(NC2CC2)n1 [GW708336X] | 4 | – | 4610 | 1 | 4610 | 108 | 0.4 | 5000
